Reference: BigSolDB 2.1

SMILES: O=C(N[C@H](Cc1c[nH]c2ccccc12)C(=O)O)OCC1c2ccccc2-c2ccccc21
- solubility (mole fraction) (in acetone, 283.15 K): 0.0377
- solubility (mole fraction) (in acetone, 288.15 K): 0.0387
- solubility (mole fraction) (in acetone, 293.15 K): 0.0407
- solubility (mole fraction) (in acetone, 298.15 K): 0.0432
- solubility (mole fraction) (in acetone, 303.15 K): 0.0456
- solubility (mole fraction) (in acetone, 308.15 K): 0.0483
- solubility (mole fraction) (in acetone, 313.15 K): 0.0533
- solubility (mole fraction) (in acetone, 318.15 K): 0.059
- solubility (mole fraction) (in acetone, 323.15 K): 0.0651
- solubility (mole fraction) (in acetonitrile, 283.15 K): 0.00128
- solubility (mole fraction) (in acetonitrile, 288.15 K): 0.0015
- solubility (mole fraction) (in acetonitrile, 293.15 K): 0.00164
- solubility (mole fraction) (in acetonitrile, 298.15 K): 0.00197
- solubility (mole fraction) (in acetonitrile, 303.15 K): 0.00229
- solubility (mole fraction) (in acetonitrile, 308.15 K): 0.00296
- solubility (mole fraction) (in acetonitrile, 313.15 K): 0.00382
- solubility (mole fraction) (in acetonitrile, 318.15 K): 0.00498
- solubility (mole fraction) (in acetonitrile, 323.15 K): 0.0067
- solubility (mole fraction) (in ethanol, 283.15 K): 0.00439
- solubility (mole fraction) (in ethanol, 288.15 K): 0.00448
- solubility (mole fraction) (in ethanol, 293.15 K): 0.00492
- solubility (mole fraction) (in ethanol, 298.15 K): 0.00538
- solubility (mole fraction) (in ethanol, 303.15 K): 0.00604
- solubility (mole fraction) (in ethanol, 308.15 K): 0.00688
- solubility (mole fraction) (in ethanol, 313.15 K): 0.00763
- solubility (mole fraction) (in ethanol, 318.15 K): 0.00893
- solubility (mole fraction) (in ethanol, 323.15 K): 0.0103
- solubility (mole fraction) (in ethyl acetate, 283.15 K): 0.00673
- solubility (mole fraction) (in ethyl acetate, 288.15 K): 0.00688
- solubility (mole fraction) (in ethyl acetate, 293.15 K): 0.00733
- solubility (mole fraction) (in ethyl acetate, 298.15 K): 0.0079
- solubility (mole fraction) (in ethyl acetate, 303.15 K): 0.00866
- solubility (mole fraction) (in ethyl acetate, 308.15 K): 0.00931
- solubility (mole fraction) (in ethyl acetate, 313.15 K): 0.0101
- solubility (mole fraction) (in ethyl acetate, 318.15 K): 0.0111
- solubility (mole fraction) (in ethyl acetate, 323.15 K): 0.0123
- solubility (mole fraction) (in isobutanol, 283.15 K): 0.00112
- solubility (mole fraction) (in isobutanol, 288.15 K): 0.00118
- solubility (mole fraction) (in isobutanol, 293.15 K): 0.00147
- solubility (mole fraction) (in isobutanol, 298.15 K): 0.0019
- solubility (mole fraction) (in isobutanol, 303.15 K): 0.00222
- solubility (mole fraction) (in isobutanol, 308.15 K): 0.00244
- solubility (mole fraction) (in isobutanol, 313.15 K): 0.00294
- solubility (mole fraction) (in isobutanol, 318.15 K): 0.00363
- solubility (mole fraction) (in isobutanol, 323.15 K): 0.00458
- solubility (mole fraction) (in isopropanol, 283.15 K): 0.00176
- solubility (mole fraction) (in isopropanol, 288.15 K): 0.00206
- solubility (mole fraction) (in isopropanol, 293.15 K): 0.00244
- solubility (mole fraction) (in isopropanol, 298.15 K): 0.00309
- solubility (mole fraction) (in isopropanol, 303.15 K): 0.00365
- solubility (mole fraction) (in isopropanol, 308.15 K): 0.00469
- solubility (mole fraction) (in isopropanol, 313.15 K): 0.00545
- solubility (mole fraction) (in isopropanol, 318.15 K): 0.00642
- solubility (mole fraction) (in isopropanol, 323.15 K): 0.00814
- solubility (mole fraction) (in methanol, 283.15 K): 0.00434
- solubility (mole fraction) (in methanol, 283.16 K): 0.0044
- solubility (mole fraction) (in methanol, 283.17 K): 0.00446
- solubility (mole fraction) (in methanol, 283.18 K): 0.00452
- solubility (mole fraction) (in methanol, 283.19 K): 0.00458
- solubility (mole fraction) (in methanol, 288.15 K): 0.00437
- solubility (mole fraction) (in methanol, 288.16 K): 0.00443
- solubility (mole fraction) (in methanol, 288.17 K): 0.00449
- solubility (mole fraction) (in methanol, 288.18 K): 0.00455
- solubility (mole fraction) (in methyl acetate, 283.15 K): 0.00812
- solubility (mole fraction) (in methyl acetate, 288.15 K): 0.00881
- solubility (mole fraction) (in methyl acetate, 293.15 K): 0.0097
- solubility (mole fraction) (in methyl acetate, 298.15 K): 0.0102
- solubility (mole fraction) (in methyl acetate, 303.15 K): 0.0112
- solubility (mole fraction) (in methyl acetate, 308.15 K): 0.0126
- solubility (mole fraction) (in methyl acetate, 313.15 K): 0.014
- solubility (mole fraction) (in methyl acetate, 318.15 K): 0.0159
- solubility (mole fraction) (in methyl acetate, 323.15 K): 0.0174
- solubility (mole fraction) (in n-butanol, 283.15 K): 0.00247
- solubility (mole fraction) (in n-butanol, 288.15 K): 0.00264
- solubility (mole fraction) (in n-butanol, 293.15 K): 0.00297
- solubility (mole fraction) (in n-butanol, 298.15 K): 0.0034
- solubility (mole fraction) (in n-butanol, 303.15 K): 0.00417
- solubility (mole fraction) (in n-butanol, 308.15 K): 0.0046
- solubility (mole fraction) (in n-butanol, 313.15 K): 0.00552
- solubility (mole fraction) (in n-butanol, 318.15 K): 0.00656
- solubility (mole fraction) (in n-butanol, 323.15 K): 0.00807
- solubility (mole fraction) (in n-butyl acetate, 283.15 K): 0.00381
- solubility (mole fraction) (in n-butyl acetate, 288.15 K): 0.00396
- solubility (mole fraction) (in n-butyl acetate, 293.15 K): 0.0042
- solubility (mole fraction) (in n-butyl acetate, 298.15 K): 0.00449
- solubility (mole fraction) (in n-butyl acetate, 303.15 K): 0.00481
- solubility (mole fraction) (in n-butyl acetate, 308.15 K): 0.00533
- solubility (mole fraction) (in n-butyl acetate, 313.15 K): 0.00581
- solubility (mole fraction) (in n-butyl acetate, 318.15 K): 0.00636
- solubility (mole fraction) (in n-butyl acetate, 323.15 K): 0.00743
- solubility (mole fraction) (in n-propanol, 283.15 K): 0.00255
- solubility (mole fraction) (in n-propanol, 288.15 K): 0.003
- solubility (mole fraction) (in n-propanol, 293.15 K): 0.00336
- solubility (mole fraction) (in n-propanol, 298.15 K): 0.00378
- solubility (mole fraction) (in n-propanol, 303.15 K): 0.00422
- solubility (mole fraction) (in n-propanol, 308.15 K): 0.0049
- solubility (mole fraction) (in n-propanol, 313.15 K): 0.00587
- solubility (mole fraction) (in n-propanol, 318.15 K): 0.00683
- solubility (mole fraction) (in n-propanol, 323.15 K): 0.00825
- solubility (mole fraction) (in n-propyl acetate, 283.15 K): 0.00437
- solubility (mole fraction) (in n-propyl acetate, 288.15 K): 0.00461
- solubility (mole fraction) (in n-propyl acetate, 293.15 K): 0.00506
- solubility (mole fraction) (in n-propyl acetate, 298.15 K): 0.0055
- solubility (mole fraction) (in n-propyl acetate, 303.15 K): 0.00595
- solubility (mole fraction) (in n-propyl acetate, 308.15 K): 0.00658
- solubility (mole fraction) (in n-propyl acetate, 313.15 K): 0.0071
- solubility (mole fraction) (in n-propyl acetate, 318.15 K): 0.00793
- solubility (mole fraction) (in n-propyl acetate, 323.15 K): 0.00903
